Experimental data published in US20250163016A1, “PYRIDINE DERIVATIVE, PREPARATION METHOD THEREFOR AND USE THEREOF” (CHENGDU EASTON BIOPHARMACEUTICALS CO., LTD., priority 2022, published 2025).

Experiments:
[1] = Pharmacokinetics of oral administration of mice under different solvent conditions; type: in vivo; settings: male, Balb/c, mouse, plasma, 5 mg/kg, p.o. 5.0 mg/kg
Description: With Balb/c mice as tested animals, blood drug concentrations of the compounds of the present application in plasma at different moments after administration of the mice under different solvent conditions were determined using an LC-MS/MS method. Pharmacokinetic parameters of the compounds of the present application in the mice under the different solvent conditions were obtained, and pharmacokinetic characteristics of the compounds were studied.
• Balb/c mice, male, weight 18-22 g, 6 mice per group. The animals were fed in an animal house after being purchased, an adaptation period was at least 3 days, and they were used for tests after passing quarantine.
According to Table 8, each group of mice was given the corresponding tested drugs or positive drugs by gavage, before administration, and 15 min, 30 min, 1 h, 2 h, 4 h, 6 h, 8 h, 10 h and 24 h after administration, a fixed volume of blood was collected through eye sockets and placed in an EDTA-K2 anticoagulant tube, centrifuging was carried out at 8000 rpm for 1 min to separate plasma into a centrifuge tube, and the plasma was frozen in a −20° C. refrigerator.
The plasma at each time point stored at −20° C. was taken out, then acetonitrile was added, after whirling at 1500 revolutions for 2 min, centrifuging was carried out for 15 min (3500 r/min), and a fixed volume of solution supernatant was taken for LC-MS/MS analysis.
Non-compartment model fitting was carried out on pharmacokinetic behaviors of the tested compounds, and DAS3.31 software was adopted to calculate main pharmacokinetic parameters (T1/2, Tmax, Cmax, AUClast, etc.).

[2] = tested on: Kasumi-1 cell subcutaneous heterograft tumor; test: In-vivo efficacy in Kasumi-1 cell subcutaneous heterograft tumor model; settings: for weight of the mice after administration / tolerance of the tested animals: Kasumi-1 xenograft mice; for weight of the mice after administration: FIG. 3; for tolerance of the tested animals: qd p.o. 20 days; for TGI: Kasumi-1 xenograft, qd, p.o., 20 days
Description: • RPMI 1640 culture medium containing 20% fetal bovine serum (FBS), 37° C., 5% CO2.
• Solvent: 0.5% methylcellulose aqueous solution; • Tested drug: compounds 16 and 36.
CB17 SCID mice, female, 6-8 weeks, weight about 18-22 grams, and each mouse was subcutaneously inoculated with 0.1 mL (1×10^7 cells+matrigel) of Kasumi-1 cells on the right side. When an average volume of tumors reached 100-200 cubic millimeters, group administration was performed, see the table below (Table 12) for administration dosages and methods. The tumor volume was measured twice a week, the weights of the mice as well as lengths and widths of tumors were recorded in each time of measurement, and the tumor volume=length×width×width/2 mm^3. When the average tumor volume of a solvent group grew to 3000 cubic millimeters or above, administration was ended, each group of mice was killed and dissected to take out tumor lumps, the tumor weight of each mouse was weighed and the tumor volume was measured, and an average tumor volume difference between a tested compound group and the solvent group was obtained via comparison. The tumor suppression effects of the compounds were evaluated with TGI (%), which could reflect a tumor growth inhibition rate.
Calculation of TGI (%):TGI (%)=[1−(current average tumor volume of compounds−average tumor volume at the beginning of compounds)/(current average tumor volume of solvent group−average tumor volume at the beginning of solvent group)]×100%

[3] = target: T1, hERG ion channel (Homo sapiens, UniProt Q12809); test: In-vitro hERG inhibitory activity (whole cell patch clamp, HEK293 cells); type: cell-based; settings: HEK293 cells stably expressing hERG channels, read-out: IC50 on hERG current
T1 construct: expressed in transfected cells; host or cells: HEK293
Description: A whole cell sheet technology was used to detect the blocking effects of compounds on hERG channels on HEK293 cells stably expressing hERG channels, and a median inhibitory concentration IC50 of the compound was determined. As part of cardiac safety evaluation, its safety in-vitro screening for cardiac toxicity was preliminarily evaluated.
• HEK293 cells stably expressing hEGR ion channels
Electrodes were drawn using PC-10 (Narishige, Japan). The whole cell patch clamp was used for recording, and noise was filtered using one fifth of a sampling frequency. The cells were clamped at −80 mV, then depolarized to 40 mV using square waves lasting for 4 seconds, and then hyperpolarized to −40 mV using square waves lasting for 2 seconds to obtain an hERG tail current. This procedure was repeated every 20 seconds. The hERG tail current was a pure hERG current. A maximum current triggered by the second square wave was detected, after the maximum current was stable, the compounds were tested through perfusion, and after reaction was stable, a blocking intensity was calculated.

[4] = solvent 0.5% sodium methylcellulose aqueous solution
[5] = solvent 5% DMSO + 10% Solutol + 85% Saline

T1 sequence (Q12809 whole entry): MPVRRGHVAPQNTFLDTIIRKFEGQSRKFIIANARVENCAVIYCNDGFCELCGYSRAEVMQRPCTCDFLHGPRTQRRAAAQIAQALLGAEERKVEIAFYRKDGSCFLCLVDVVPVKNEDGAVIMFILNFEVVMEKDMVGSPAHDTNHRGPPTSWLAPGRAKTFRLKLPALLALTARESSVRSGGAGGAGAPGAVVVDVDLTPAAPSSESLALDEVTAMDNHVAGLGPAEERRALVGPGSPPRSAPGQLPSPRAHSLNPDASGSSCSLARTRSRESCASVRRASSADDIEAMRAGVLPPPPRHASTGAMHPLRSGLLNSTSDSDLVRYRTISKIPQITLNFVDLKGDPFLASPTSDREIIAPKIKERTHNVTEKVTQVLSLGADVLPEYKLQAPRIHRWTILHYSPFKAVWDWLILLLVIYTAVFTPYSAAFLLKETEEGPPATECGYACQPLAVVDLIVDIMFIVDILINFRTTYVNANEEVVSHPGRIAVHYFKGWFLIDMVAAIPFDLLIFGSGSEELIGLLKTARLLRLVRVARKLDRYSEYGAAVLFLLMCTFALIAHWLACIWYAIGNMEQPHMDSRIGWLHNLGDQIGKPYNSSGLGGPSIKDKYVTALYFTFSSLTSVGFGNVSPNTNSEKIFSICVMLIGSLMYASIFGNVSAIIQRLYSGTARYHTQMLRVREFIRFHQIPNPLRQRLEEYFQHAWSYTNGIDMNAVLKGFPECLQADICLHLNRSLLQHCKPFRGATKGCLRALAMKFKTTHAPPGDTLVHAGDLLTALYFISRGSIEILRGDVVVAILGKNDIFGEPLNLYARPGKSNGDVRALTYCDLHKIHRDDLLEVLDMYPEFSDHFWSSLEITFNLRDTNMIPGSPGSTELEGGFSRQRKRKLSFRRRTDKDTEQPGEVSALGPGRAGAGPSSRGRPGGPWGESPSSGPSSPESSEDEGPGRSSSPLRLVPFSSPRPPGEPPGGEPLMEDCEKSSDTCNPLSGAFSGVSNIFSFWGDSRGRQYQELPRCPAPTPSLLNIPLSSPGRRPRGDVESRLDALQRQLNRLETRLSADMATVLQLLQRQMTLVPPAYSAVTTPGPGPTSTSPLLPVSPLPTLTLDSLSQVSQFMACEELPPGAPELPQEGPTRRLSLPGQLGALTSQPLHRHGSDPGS

| SMILES | AUC(0-t) [1, 4] | Tmax [1, 4] | half-life [1, 4] | AUC(0-t) [1, 5] | Cmax [1, 5] | Tmax [1, 5] | half-life [1, 5] | weight of the mice after administration [2] | tolerance of the tested animals [2] | TGI ([2]; 3.5 mg/Kg) | TGI ([2]; 5 mg/Kg) | IC50 [3] | Cmax [1, 4] |
| --- | --- | --- | --- | --- | --- | --- | --- | --- | --- | --- | --- | --- | --- |
| COc1ccc(-c2c(-c3ccc(C#N)c(F)c3)nc(N3CCC(N)CC3)n(C)c2=O)cc1F [CC-90011, reference compound] | 965 ± 120 ng·h/mL | 3.33 ± 1.15 h | 5.01 ± 0.04 h | 871 ± 270 ng·h/mL | 173 ± 50.9 ng/mL | 1 h | 2.44 ± 0.34 h | – | – | – | – | – | – |
| CC(C)(O)Cn1ncc2cc(-c3c(C#N)cc(N4CCC(N)CC4)nc3-c3ccc(C#N)c(F)c3)c(F)cc21 [Compound 16, 6-(4-aminopiperid-1-yl)-2-(4-cyano-3-fluorophenyl)-3-(6-fluoro-1-(2-hydroxyl-2-methylpropyl)-1H-indazol-5-yl)isonicotinonitrile] | 3220 ± 1510 ng·h/mL | 3.33 ± 1.15 h | 3.99 ± 0.59 h | 2420 ± 123 ng·h/mL | 612 ± 111 ng/mL | 2.67 ± 1.15 h | 5.52 ± 0.67 h | does not decrease | good tolerance | 78.28% | 86.13% | > 10 µM | 895 ± 499 ng/mL |
| CC(C)(O)Cn1nc(F)c2cc(-c3c(C#N)cc(N4CCC(N)CC4)nc3-c3ccc(C#N)c(F)c3)c(F)cc21 [Compound 36, 6-(4-aminopiperid-1-yl)-2-(4-cyano-3-fluorophenyl)-3-(3,6-difluoro-1-(2-hydroxyl-2-methylpropyl)-1H-indazol-5-yl)isonicotinonitrile] | – | – | – | – | – | – | – | does not decrease | good tolerance | – | 84.87% | – | – |
